Source: US11357779B2 (G1 Therapeutics, Inc., priority 2018, dated 2022)

Assay: Adverse events by CTCAE grade and frequency, all dosing cohorts
Assay type: in vivo, human
Description: Patients were enrolled into 1 of 2 parallel, independently operating, dose-escalation dosing cohorts with Form B of Compound II administered continuously either once daily (QD) or twice daily (BID) with food with fixed-dose fulvestrant (intramuscularly every 14 days for the first three injections and then every 28 days). Pre- or perimenopausal patients also received goserelin for the duration of study treatment. A […] agonist was started at least 28 days before the first dose of Form B, and those patients who were taking another LHRH agonist were switched to goserelin on Day 1. Patients were split into […] cohorts providing once a day (QD) dosing of 200 mg, 300 mg, 400 mg, 500 mg, or 650 mg of Form B, or twice a day (BID) dosing of 100 mg, 150 mg, or 200 mg of Form B. The second dose in BID cohorts was not administered in the evening until at least 12 hours after the initial morning dose of Form B. The dosing cohorts for Form B of Compound II are provided in Table 1.

[1] = Dose 100 mg BID, adverse event frequency
[2] = Dose 150 mg BID, adverse event frequency
[3] = Dose 200 mg BID, adverse event frequency
[4] = Dose 200 mg QD, adverse event frequency
[5] = Dose 300 mg QD, adverse event frequency
[6] = Dose 400 mg QD, adverse event frequency
[7] = Dose 500 mg QD, adverse event frequency
[8] = Dose 650 mg QD, adverse event frequency
[9] = Total, all dosing cohorts, All Grades, frequency
[10] = Total, all dosing cohorts, CTCAE Grade 1, frequency
[11] = Total, all dosing cohorts, CTCAE Grade 2, frequency
[12] = Total, all dosing cohorts, CTCAE Grade 3, frequency
[13] = Total, all dosing cohorts, CTCAE Grade 4, frequency

## CC(C)N1CCN(c2ccc(Nc3ncc4cc5n(c4n3)C3(CCCCC3)CNC5=O)nc2)CC1 [Form B]
[1]
  ALT increase: 0
  AST increased: 0
  Anemia: 2
  BUN increased: 0
  Diarrhea: 1
  Fatigue: 1
  Febrile neutropenia: 0
  GGT increased: 0
  Hematuria: 1
  Leukopenia: 3
  Lymphopenia: 0
  Metrorrhagia: 0
  Nausea: 2
  Neutropenia: 4
  SCr increased: 1
  Stomatitis: 0
  Thrombocytopenia: 1
  Vomiting: 0
[2]
  ALT increase: 0
  AST increased: 0
  Anemia: 1
  BUN increased: 0
  Diarrhea: 2
  Fatigue: 1
  Febrile neutropenia: 1
  GGT increased: 0
  Hematuria: 1
  Leukopenia: 3
  Lymphopenia: 0
  Metrorrhagia: 1
  Nausea: 1
  Neutropenia: 3
  SCr increased: 0
  Stomatitis: 1
  Thrombocytopenia: 1
  Vomiting: 1
[3]
  ALT increase: 0
  AST increased: 0
  Anemia: 0
  BUN increased: 0
  Diarrhea: 1
  Fatigue: 1
  Febrile neutropenia: 0
  GGT increased: 0
  Hematuria: 0
  Leukopenia: 1
  Lymphopenia: 0
  Metrorrhagia: 0
  Nausea: 1
  Neutropenia: 2
  SCr increased: 0
  Stomatitis: 0
  Thrombocytopenia: 0
  Vomiting: 0
[4]
  ALT increase: 0
  AST increased: 0
  Anemia: 3
  BUN increased: 1
  Diarrhea: 1
  Fatigue: 0
  Febrile neutropenia: 0
  GGT increased: 0
  Hematuria: 1
  Leukopenia: 4
  Lymphopenia: 1
  Metrorrhagia: 0
  Nausea: 0
  Neutropenia: 4
  SCr increased: 0
  Stomatitis: 0
  Thrombocytopenia: 0
  Vomiting: 0
[5]
  ALT increase: 0
  AST increased: 0
  Anemia: 1
  BUN increased: 1
  Diarrhea: 2
  Fatigue: 1
  Febrile neutropenia: 0
  GGT increased: 0
  Hematuria: 1
  Leukopenia: 2
  Lymphopenia: 0
  Metrorrhagia: 0
  Nausea: 2
  Neutropenia: 3
  SCr increased: 0
  Stomatitis: 0
  Thrombocytopenia: 1
  Vomiting: 2
[6]
  ALT increase: 1
  AST increased: 1
  Anemia: 2
  BUN increased: 0
  Diarrhea: 2
  Fatigue: 2
  Febrile neutropenia: 0
  GGT increased: 1
  Hematuria: 1
  Leukopenia: 0
  Lymphopenia: 0
  Metrorrhagia: 0
  Nausea: 3
  Neutropenia: 3
  SCr increased: 0
  Stomatitis: 0
  Thrombocytopenia: 1
  Vomiting: 3
[7]
  ALT increase: 1
  AST increased: 0
  Anemia: 2
  BUN increased: 0
  Diarrhea: 1
  Fatigue: 1
  Febrile neutropenia: 0
  GGT increased: 0
  Hematuria: 0
  Leukopenia: 1
  Lymphopenia: 0
  Metrorrhagia: 0
  Nausea: 3
  Neutropenia: 3
  SCr increased: 1
  Stomatitis: 0
  Thrombocytopenia: 3
  Vomiting: 1
[8]
  ALT increase: 0
  AST increased: 0
  Anemia: 0
  BUN increased: 0
  Diarrhea: 4
  Fatigue: 1
  Febrile neutropenia: 0
  GGT increased: 0
  Hematuria: 0
  Leukopenia: 2
  Lymphopenia: 0
  Metrorrhagia: 0
  Nausea: 3
  Neutropenia: 2
  SCr increased: 0
  Stomatitis: 0
  Thrombocytopenia: 0
  Vomiting: 5
[9]
  ALT increase: 2
  AST increased: 1
  Anemia: 11
  BUN increased: 2
  Diarrhea: 14
  Fatigue: 8
  Febrile neutropenia: 1
  GGT increased: 1
  Hematuria: 5
  Leukopenia: 16
  Lymphopenia: 1
  Metrorrhagia: 1
  Nausea: 15
  Neutropenia: 24
  SCr increased: 2
  Stomatitis: 1
  Thrombocytopenia: 7
  Vomiting: 12
[10]
  ALT increase: 1
  AST increased: 0
  Anemia: 3
  BUN increased: 2
  Diarrhea: 6
  Fatigue: 5
  Febrile neutropenia: 0
  GGT increased: 0
  Hematuria: 5
  Leukopenia: 4
  Lymphopenia: 0
  Metrorrhagia: 0
  Nausea: 8
  Neutropenia: 6
  SCr increased: 2
  Stomatitis: 0
  Thrombocytopenia: 5
  Vomiting: 5
[11]
  ALT increase: 1
  AST increased: 1
  Anemia: 2
  BUN increased: 0
  Diarrhea: 8
  Fatigue: 3
  Febrile neutropenia: 0
  GGT increased: 1
  Hematuria: 0
  Leukopenia: 9
  Lymphopenia: 1
  Metrorrhagia: 1
  Nausea: 7
  Neutropenia: 7
  SCr increased: 0
  Stomatitis: 1
  Thrombocytopenia: 2
  Vomiting: 3
[12]
  ALT increase: 0
  AST increased: 0
  Anemia: 1
  BUN increased: 0
  Diarrhea: 0
  Fatigue: 0
  Febrile neutropenia: 1
  GGT increased: 0
  Hematuria: 0
  Leukopenia: 3
  Lymphopenia: 0
  Metrorrhagia: 0
  Nausea: 0
  Neutropenia: 9
  SCr increased: 0
  Stomatitis: 0
  Thrombocytopenia: 0
  Vomiting: 0
[13]
  ALT increase: 0
  AST increased: 0
  Anemia: 0
  BUN increased: 0
  Diarrhea: 0
  Fatigue: 0
  Febrile neutropenia: 0
  GGT increased: 0
  Hematuria: 0
  Leukopenia: 0
  Lymphopenia: 0
  Metrorrhagia: 0
  Nausea: 0
  Neutropenia: 2
  SCr increased: 0
  Stomatitis: 0
  Thrombocytopenia: 0
  Vomiting: 0
